In article PMC11042424, “Development of a First-in-Class RIPK1 Degrader to Enhance Antitumor Immunity” (Research Square, 2024):

Key:
MC38 tumors = test: Syngeneic MC38 colon cancer model with anti-PD1; format: in vivo
RIPK1 = molecular target: T1, RIPK1 (Mus musculus, UniProt Q60855); test: In vivo pharmacodynamics: RIPK1 levels in tissues; parameters: observed a 60% reduction in RIPK1 levels in tumors; from tissue; host or cells: tumors, spleen, lymph nodes, PBMCs, lungs, bone marrow of C57BL/6J mice; species or system C57BL/6J mice
T1 sequence (Q60855 1-656): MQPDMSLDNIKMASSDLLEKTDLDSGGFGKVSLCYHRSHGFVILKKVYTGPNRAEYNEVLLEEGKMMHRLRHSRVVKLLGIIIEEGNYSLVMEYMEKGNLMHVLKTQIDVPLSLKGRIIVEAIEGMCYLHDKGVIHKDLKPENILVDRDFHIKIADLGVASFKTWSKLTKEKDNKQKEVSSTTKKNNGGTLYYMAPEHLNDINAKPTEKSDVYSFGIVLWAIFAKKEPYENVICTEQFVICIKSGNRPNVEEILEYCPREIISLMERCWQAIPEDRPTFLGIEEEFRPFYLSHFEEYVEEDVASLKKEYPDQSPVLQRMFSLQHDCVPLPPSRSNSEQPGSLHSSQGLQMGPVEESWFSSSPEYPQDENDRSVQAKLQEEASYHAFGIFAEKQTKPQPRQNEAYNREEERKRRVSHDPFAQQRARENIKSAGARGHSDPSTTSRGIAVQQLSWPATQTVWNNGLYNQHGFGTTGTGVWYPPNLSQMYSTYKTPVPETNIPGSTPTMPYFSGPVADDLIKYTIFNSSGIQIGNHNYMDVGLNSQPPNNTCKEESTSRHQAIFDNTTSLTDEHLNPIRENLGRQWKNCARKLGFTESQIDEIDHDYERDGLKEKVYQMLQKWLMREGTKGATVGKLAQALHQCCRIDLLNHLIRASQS
Method: Figure 4 LD4172 synergizes with Anti-PD1 to inhibit tumor growth. A, Plasma concentrations of LD4172 in C57BL/6J mice administered 1 mg/kg intravenously (i.v.) or 10 mg/kg intraperitoneally (i.p.) (n=4). B, Representative immunoblots of RIPK1 in different tissues of C57BL/6J mice treated with LD4172 (n=3–4). C, Densitometric analysis of RIPK1 protein levels in different tissues (n=3 or 4). D, Representative immunoblots of RIPK1 levels of B16F10 cells transduced with gRNA specific for RIPK1 or non-targetable control (sgNC). E, B16F10-RIPK1-KO tumors sensitized to anti-PD1 treatment: 3×10^5 B16F10 cells transduced with gRNA specific for RIPK1 or non-targetable control (sgNC) were inoculated into C57BL/6J mice. After seven days, mice with measurable tumors (~100 mm3) were randomly treated with or without anti-PD1 in vivo (100 μg per dose, i.p., every three days, n=8). F, Tumor growth curve of mice with B16F10 tumors treated with LD4172 and/or anti-PD1 (n=8). C57B6/J mice were subcutaneously inoculated with 3×10^5 B16F10 tumor cells. After seven days (tumor size ~ 100 mm3), mice were treated every three days with anti- PD1 (100 μg per dose, i.p.), daily with LD4172 (20 mg/kg, i.p.), a combination of LD4172 and anti-PD1 (same dose as their individual doses), or their corresponding vehicle control. G, Kaplan-Meier survival curve for all experimental groups. H, Final tumor weight (g) from F after 22d of treatment (n=8). I, Representative images of B16F10 tumors collected at the end of treatment. J, Mouse body weight (n=8). K, Tumor growth curve of mice with B16F10 tumors treated with T2I and/or anti-PD1 (n=8). The experimental conditions and treatment regimens were the same as F except using the RIPK1 kinase inhibitor T2I (20 mg/kg, i.p.) to replace LD4172. Representative data from at least three independent experiments are shown. Data are expressed as the mean ± SEM. * p<0.05; ** p<0.01; *** p<0.001, **** p<0.0001, respectively. ns, indicates no statistical significance.
To investigate the pharmacodynamics of LD4172 in vivo, we administered LD4172 via the i.p. route and observed a 60% reduction in RIPK1 levels in tumors (20 mg/kg, b.i.d., i.p.) (Fig. 4B–C).

Cc1ncsc1-c1ccc([C@H](C)NC(=O)[C@@H]2C[C@@H](O)CN2C(=O)[C@@H](NC(=O)CCCCCCCCCCC(=O)NCCCn2cc(-c3ccc4c(c3)CCN4C(=O)Cc3cccc(OC(F)(F)F)c3)c3c(N)ncnc32)C(C)(C)C)cc1 [LD4172] was tested, and the “tumor response in combination with anti-PD1” value (MC38 tumors) was “substantially sensitized MC38 tumors to anti-PD1 therapy”, the “reduction in RIPK1 levels in tumors” value (RIPK1; 20 mg/kg, b.i.d., i.p.) was 60% and the “RIPK1 degradation in lymph nodes, PBMCs, lungs, and bone marrow” value (RIPK1; i.p.) was “no significant RIPK1 degradation”. For the same compound, the “RIPK1 degradation in the spleen” value (RIPK1; i.p.) was “less than 50%” and the “RIPK1 degradation in tumors, intratumoral administration” value (RIPK1; intratumoral vs i.p.) was “improved RIPK1 degradation in the tumors”.
